Among the data in US6576663B2, “6-Keto prostaglandin F1α and analogs for treating dry eye” (Alcon, Inc., priority 1999, dated 2003) are mucin production and chloride secretagogue activity values, retold here.

The subject of assay [1] is human conjuctival epithelium. The experiment in a line: mucin production in human conjuctival epithelium. In kind it is cell-based.
The subject of assay [2] is intestinal epithelial cells. Conditions: released by intestinal epithelial cells in response to hypoxia; cited from earlier work.

Each structure is given as a SMILES string.

`CCCCC[C@H](O)/C=C/[C@@H]1[C@@H](CC(=O)CCCCC(=O)O)[C@@H](O)C[C@H]1O` [6-keto PGF1α, 6-keto-PGF1α]: in assay [1], the mucin production result is given as “stimulate mucin production”. In assay [2], the chloride secretagogue activity entry was “potent chloride secretagogue”.
